Measurements: patent US20180289678A1, “PHARMACEUTICAL COMPOSITION, PHARMACEUTICAL DOSAGE FORM, PROCESS FOR THEIR PREPARATION, METHODS FOR TREATING AND USES THEREOF” (Boehringer Ingelheim International GmbH, priority 2009, published 2018)
Like-named read-outs stand apart in the source and are kept apart here.

Experiment: Study .2: multiple rising dose trial in diabetic patients, once daily for 8 days, pharmacokinetic parameters
Type: in vivo, human
Conditions: for Cmax / AUC / Tmax / AUC(0-inf): Study .2, fasted; for AUCτ,ss,norm Max / AUCτ,ss,norm Median / AUCτ,ss,norm Min / AUCτ,ss,norm gMean / Cmax,ss,norm Max / Cmax,ss,norm Median / Cmax,ss,norm Min / Cmax,ss,norm gMean: Study .2, steady state, dose-normalized
Protocol: 5. Pharmacokinetic Parameters
The pharmacokinetic parameters of pharmaceutical compositions and pharmaceutical dosage forms are assessed in healthy volunteer and patient populations. In the studies shown below, the participants fasted on the day of sampling, unless as otherwise stated (see for example study .3). The active substance in the studies below is the compound (I.9), preferably in the crystalline form (I.9X), and the dose of active ingredient is indicated in mg.
For the quantification of plasma concentrations of the active ingredient, 2.7 mL of blood was collected and transferred into an EDTA (ethylendiaminetetraacetic acid)-anticoagulant blood drawing tube. The EDTA-anticoagulated blood samples were centrifuged immediately after collection. Centrifugation lasted for about 10 minutes (at about 2,000×gf to 4,000×gf) at 4-8° C. or within 30 minutes while stored on ice. Concentrations of active substance in EDTA human plasma samples were quantitated using a HPLC/MS/MS method. The assay method comprised a solid phase supported liquid-liquid extraction of human plasma coupled with HPLC/MS/MS determination of the extracted samples. The HPLC/MS/MS assay was validated for the range of 1.11 to 1110 nM in human plasma.
Study .2: Multiple rising dose trial in a diabetic patient population of N=48, once daily administration for 8 days. Patients were administered tablets as described in Example 10 (section Examples of formulations).
AUC0-inf:area under the concentration-time curve of the analyte in plasma over the time interval from 0 extrapolated to infinity.
Cmax: maximum concentration of the analyte in plasma.
Tmax: time from dosing to maximum concentration.
AUCT,SS:area under the concentration-time curve of the analyte in plasma over the time interval from 0 to 24 h at steady-state.
Cmax,ss:maximum concentration of the analyte in plasma at steady state over a uniform dosing interval.
tmax,ss:time from dosing to maximum concentration at steady state.

- Cmax (25 mg single dose, read-out: Cmax Min): 420 nM
- AUCτ,ss,norm Max (dose 2.5 mg, plasma): 271 nmol·h/L/mg
- AUCτ,ss,norm Median (dose 2.5 mg, plasma): 183 nmol·h/L/mg
- AUCτ,ss,norm Min (dose 2.5 mg, plasma): 113 nmol·h/L/mg
- AUCτ,ss,norm gMean (dose 2.5 mg, plasma): 184 nmol·h/L/mg
- Cmax,ss,norm Max (dose 2.5 mg, plasma): 39 nmol/L/mg
- Cmax,ss,norm Median (dose 2.5 mg, plasma): 29 nmol/L/mg
- Cmax,ss,norm Min (dose 2.5 mg, plasma): 16 nmol/L/mg
- Cmax,ss,norm gMean (dose 2.5 mg, plasma): 27 nmol/L/mg
- AUCτ,ss,norm Max (dose 10 mg, plasma): 258 nmol·h/L/mg
- AUCτ,ss,norm Median (dose 10 mg, plasma): 194 nmol·h/L/mg
- AUCτ,ss,norm Min (dose 10 mg, plasma): 164 nmol·h/L/mg
- AUCτ,ss,norm gMean (dose 10 mg, plasma): 200 nmol·h/L/mg
- Cmax,ss,norm Max (dose 10 mg, plasma): 48 nmol/L/mg
- Cmax,ss,norm Median (dose 10 mg, plasma): 28 nmol/L/mg
- Cmax,ss,norm Min (dose 10 mg, plasma): 17 nmol/L/mg
- Cmax,ss,norm gMean (dose 10 mg, plasma): 27 nmol/L/mg
- AUCτ,ss,norm Max (dose 25 mg, plasma): 266 nmol·h/L/mg
- AUCτ,ss,norm Median (dose 25 mg, plasma): 182 nmol·h/L/mg
- AUCτ,ss,norm Min (dose 25 mg, plasma): 138 nmol·h/L/mg
- AUCτ,ss,norm gMean (dose 25 mg, plasma): 196 nmol·h/L/mg
- Cmax,ss,norm Max (dose 25 mg, plasma): 32 nmol/L/mg
- Cmax,ss,norm Median (dose 25 mg, plasma): 24 nmol/L/mg
- Cmax,ss,norm Min (dose 25 mg, plasma): 18 nmol/L/mg
- Cmax,ss,norm gMean (dose 25 mg, plasma): 25 nmol/L/mg
- AUC (human, plasma, oral, 2.5 mg, 2.5 mg once daily, steady state, read-out: AUCτ,ss Median): 0.458 µM·h
- AUC (human, plasma, oral, 2.5 mg, 2.5 mg once daily, steady state, read-out: AUCτ,ss gMean): 0.46 µM·h
- Cmax (human, plasma, oral, 2.5 mg, 2.5 mg once daily, steady state, read-out: Cmax,ss Median): 72 nM
- Cmax (human, plasma, oral, 2.5 mg, 2.5 mg once daily, steady state, read-out: Cmax,ss gMean): 66.6 nM
- Tmax (human, plasma, oral, 2.5 mg, 2.5 mg once daily, steady state, read-out: tmax,ss Mean): 1.33 h
- Tmax (human, plasma, oral, 2.5 mg, 2.5 mg once daily, steady state, read-out: tmax,ss g Mean): 1.28 h
- AUC(0-inf) (human, plasma, oral, 2.5 mg, 2.5 mg single dose, read-out: AUC0-inf Mean): 0.476 µM·h
- AUC(0-inf) (human, plasma, oral, 2.5 mg, 2.5 mg single dose, read-out: AUC0-inf Median): 0.501 µM·h
- AUC(0-inf) (human, plasma, oral, 2.5 mg, 2.5 mg single dose, read-out: AUC0-inf gMean): 0.468 µM·h
- Cmax (human, plasma, oral, 2.5 mg, 2.5 mg single dose, read-out: Cmax Median): 62.6 nM
- Cmax (human, plasma, oral, 2.5 mg, 2.5 mg single dose, read-out: Cmax gMean): 61.3 nM
- Tmax (human, plasma, oral, 2.5 mg, 2.5 mg single dose, read-out: tmax Mean): 1.41 h
- Tmax (human, plasma, oral, 2.5 mg, 2.5 mg single dose, read-out: tmax Median): 1.5 h
- Tmax (human, plasma, oral, 2.5 mg, 2.5 mg single dose, read-out: tmax gMean): 1.37 h
- AUC (human, plasma, oral, 10 mg, 10 mg once daily, steady state, read-out: AUCτ,ss Median): 1.94 µM·h
- AUC (human, plasma, oral, 10 mg, 10 mg once daily, steady state, read-out: AUCτ,ss gMean): 2 µM·h
- Cmax (human, plasma, oral, 10 mg, 10 mg once daily, steady state, read-out: Cmax,ss Median): 279 nM
- Cmax (human, plasma, oral, 10 mg, 10 mg once daily, steady state, read-out: Cmax,ss gMean): 272 nM
- Tmax (human, plasma, oral, 10 mg, 10 mg once daily, steady state, read-out: tmax,ss Mean): 1.43 h
- Tmax (human, plasma, oral, 10 mg, 10 mg once daily, steady state, read-out: tmax,ss Median): 1.5 h
- Tmax (human, plasma, oral, 10 mg, 10 mg once daily, steady state, read-out: tmax,ss g Mean): 1.4 h
- AUC(0-inf) (human, plasma, oral, 10 mg, 10 mg single dose, read-out: AUC0-inf Mean): 1.91 µM·h
- AUC(0-inf) (human, plasma, oral, 10 mg, 10 mg single dose, read-out: AUC0-inf Median): 1.83 µM·h
- AUC(0-inf) (human, plasma, oral, 10 mg, 10 mg single dose, read-out: AUC0-inf gMean): 1.89 µM·h
- Cmax (human, plasma, oral, 10 mg, 10 mg single dose, read-out: Cmax Median): 233 nM
- Cmax (human, plasma, oral, 10 mg, 10 mg single dose, read-out: Cmax gMean): 240 nM
- Tmax (human, plasma, oral, 10 mg, 10 mg single dose, read-out: tmax Mean): 1.5 h
- Tmax (human, plasma, oral, 10 mg, 10 mg single dose, read-out: tmax gMean): 1.48 h
- AUC (human, plasma, oral, 25 mg, 25 mg once daily, steady state, read-out: AUCτ,ss Median): 4.56 µM·h
- AUC (human, plasma, oral, 25 mg, 25 mg once daily, steady state, read-out: AUCτ,ss gMean): 4.89 µM·h
- Cmax (human, plasma, oral, 25 mg, 25 mg once daily, steady state, read-out: Cmax,ss Median): 603 nM
- Cmax (human, plasma, oral, 25 mg, 25 mg once daily, steady state, read-out: Cmax,ss gMean): 622 nM
- Tmax (human, plasma, oral, 25 mg, 25 mg once daily, steady state, read-out: tmax,ss Mean): 2.26 h
- Tmax (human, plasma, oral, 25 mg, 25 mg once daily, steady state, read-out: tmax,ss g Mean): 1.97 h
- AUC(0-inf) (human, plasma, oral, 25 mg, 25 mg single dose, read-out: AUC0-inf Mean): 4.9 µM·h
- AUC(0-inf) (human, plasma, oral, 25 mg, 25 mg single dose, read-out: AUC0-inf Median): 4.64 µM·h
- AUC(0-inf) (human, plasma, oral, 25 mg, 25 mg single dose, read-out: AUC0-inf gMean): 4.78 µM·h
- Cmax (human, plasma, oral, 25 mg, 25 mg single dose, read-out: Cmax Median): 569 nM
- Cmax (human, plasma, oral, 25 mg, 25 mg single dose, read-out: Cmax gMean): 592 nM
- Tmax (human, plasma, oral, 25 mg, 25 mg single dose, read-out: tmax Mean): 1.72 h
- Tmax (human, plasma, oral, 25 mg, 25 mg single dose, read-out: tmax Median): 1.5 h
- Tmax (human, plasma, oral, 25 mg, 25 mg single dose, read-out: tmax gMean): 1.6 h
Structure (SMILES): OC[C@H]1O[C@@H](c2ccc(Cl)c(Cc3ccc(O[C@H]4CCOC4)cc3)c2)[C@H](O)[C@@H](O)[C@@H]1O [Compound (I.9), 1-chloro-4-(β-D-glucopyranos-1-yl)-2-[4-((S)-tetrahydrofuran-3-yloxy)-benzyl]-benzene]
